# Experimental data taken from patent US4421688A, “Macbecin derivatives” (Takeda Chemical Industries, Ltd., priority 1981, dated 1983).
# Experiment: Acute toxicity, mouse, intraperitoneal
# Type: in vivo
smiles,measurement,setting,value
COC1c2cc(O)cc(c2O)NC(=O)/C(C)=C/C=C\C(C)C(OC(N)=O)/C(C)=C/C(C)C(OC)C(O)CC1C (centres unmarked) [E-5-R],acute toxicity as compared with Macbecin I and II (in words),"intraperitoneal, versus Macbecin I and II",lower toxicity as compared with Macbecin I and II
same,acute toxicity (in words),ip,low toxicity
